Laboratory results as given in EPA's ToxRefDB 2.

Assays:
[1] = system: mouse; conditions: Subchronic oral toxicity in rodents, b6c3f1, Gavage/Intubation, dose end: 14 week, group: systemic, systemic / hematology / erythrocyte (rbc) count differential / erythrocyte (rbc) + systemic / hematology / hematocrit (hct) / hematocrit (…
[2] = system: rat; conditions: Subchronic oral toxicity in rodents, fischer, Gavage/Intubation, dose end: 14 week, group: systemic
[3] = system: rat; conditions: Subchronic oral toxicity in rodents, other, Feed, dose end: 90 day, group: systemic, systemic / pathology gross / kidney / enlarged + systemic / pathology gross / liver / enlarged + systemic / urinalysis / glucose / glucose…
[4] = system: rabbit; conditions: Prenatal developmental toxicity study, new zealand white, Oral, Gavage/Intubation, dose end: 19 GD
[5] = system: dog; conditions: Combined chronic toxicity/carcinogenicity; beagle; Oral; Feed; dose end: 104 week; group: systemic; systemic / clinical chemistry / alanine aminotransferase (alt/sgpt) / alanine aminotransferase (alt/sgpt) + systemic / clinical chemistry / …
[6] = system: rat; conditions: Subchronic oral toxicity in rodents, sprague dawley, Feed, dose end: 3 month, group: systemic
[7] = system: rat; conditions: Prenatal developmental toxicity study, sprague dawley, Oral, Gavage/Intubation, dose end: 17 GD
[8] = system: dog; conditions: Subchronic oral toxicity in nonrodent, beagle, Capsule, dose end: 90 day, group: systemic
[9] = system: rabbit; conditions: Prenatal developmental toxicity study, new zealand white, Oral, Gavage/Intubation, dose end: 20 GD
[10] = system: dog; conditions: Subchronic oral toxicity in nonrodent, beagle, Capsule, dose end: 90 day, group: systemic, systemic / clinical chemistry / alanine aminotransferase (alt/sgpt) / alanine aminotransferase (alt/sgpt) + systemic / clinical chemistry / …
[11] = system: dog; conditions: Chronic toxicity, beagle, Oral, Capsule, dose end: 52 week, group: systemic
[12] = system: rat; conditions: Combined chronic toxicity/carcinogenicity, wistar, Oral, Water, dose end: 104 week, group: systemic
[13] = system: mouse; conditions: Carcinogenicity, cd1, Oral, Water, dose end: 104 week, group: systemic
[14] = system: rat; conditions: Prenatal developmental toxicity study, wistar, Oral, Gavage/Intubation, dose end: 17 GD
[15] = system: rat; conditions: Subchronic oral toxicity in rodents; sprague dawley; Inhalation; Whole-Body; dose end: 3 month; group: systemic; systemic / clinical chemistry / gamma glutamyl transferase (ggt) / gamma glutamyl transferase (ggt) + systemic / clinical chemistry / …
[16] = system: rat; conditions: Combined chronic toxicity/carcinogenicity; sprague dawley; Inhalation; Whole-Body; dose end: 24 month; group: systemic; systemic / clinical chemistry / alanine aminotransferase (alt/sgpt) / alanine aminotransferase (alt/sgpt) + systemic / clinical chemistry / …
[17] = system: mouse; conditions: Subchronic oral toxicity in rodents, cd1, Feed, dose end: 13 week, group: systemic, systemic / organ weight / liver / absolute + systemic / organ weight / liver / relative to body weight + systemic / pathology microscopic / …
[18] = system: rat; conditions: Subchronic oral toxicity in rodents, fischer, Feed, dose end: 90 day, group: systemic
[19] = system: rat; conditions: Combined chronic toxicity/carcinogenicity, fischer, Oral, Feed, dose end: 24 month, group: systemic
[20] = system: mouse; conditions: Carcinogenicity, cd1, Oral, Feed, dose end: 80 week, group: systemic
[21] = system: dog; conditions: Chronic toxicity; beagle; Oral; Feed; dose end: 12 month; group: systemic; systemic / clinical chemistry / alkaline phosphatase (alp/alk) / alkaline phosphatase (alp/alk) + systemic / organ weight / liver / absolute…
[22] = systemic / clinical chemistry / alanine aminotransferase (alt/sgpt) / alanine aminotransferase (alt/sgpt) + systemic / clinical chemistry / …
[23] = systemic / hematology / hematocrit (hct) / hematocrit (hct) + systemic / pathology microscopic / nose / degeneration + systemic / clinical …
[24] = group: developmental, developmental / developmental malformation / bone / supernumerary + systemic / in life observation / body weight / fetal weight
[25] = group: maternal, systemic / in life observation / body weight / body weight gain
[26] = systemic / hematology / hematocrit (hct) / hematocrit (hct) + systemic / hematology / hemoglobin (hgb) / hemoglobin (hgb)
[27] = systemic / hematology / hematocrit (hct) / hematocrit (hct) + systemic / hematology / hemoglobin (hgb) / hemoglobin (hgb) + systemic / in …
[28] = group: developmental, developmental / developmental malformation / bone / full supernumerary + developmental / developmental malformation / bone / cervical + …
[29] = group: maternal, systemic / in life observation / body weight / body weight gain + systemic / in life observation / food consumption / food consumption
[30] = group: maternal, systemic / in life observation / body weight / body weight gain + systemic / in life observation / food consumption / food consumption + …
[31] = systemic / organ weight / liver / absolute + systemic / organ weight / liver / relative to body weight
[32] = group: developmental, developmental / developmental malformation / bone / enlarge suture + developmental / developmental malformation / bone / incomplete …
[33] = systemic / clinical chemistry / alanine aminotransferase (alt/sgpt) / alanine aminotransferase (alt/sgpt) + systemic / pathology microscopic…
[34] = systemic / clinical chemistry / aspartate aminotransferase (ast/sgot) / aspartate aminotransferase (ast/sgot) + systemic / hematology / …
[35] = systemic / clinical chemistry / cholesterol / cholesterol + systemic / clinical chemistry / triglycerides / triglycerides + systemic / …
[36] = systemic / in life observation / food consumption / food consumption + systemic / in life observation / water consumption / water …
[37] = systemic / pathology microscopic / liver / sarcoma + systemic / pathology gross / full gross necropsy / sarcoma
[38] = group: developmental, developmental / developmental malformation / bone / unossified + developmental / developmental malformation / other / other + systemic / in …
[39] = systemic / in life observation / body weight / body weight gain + systemic / pathology microscopic / liver / hypertrophy + systemic / in …
[40] = systemic / in life observation / body weight / body weight gain + systemic / pathology microscopic / liver / hypertrophy + systemic / organ …
[41] = systemic / in life observation / body weight / body weight gain + systemic / organ weight / kidney / relative to body weight
[42] = systemic / in life observation / body weight / body weight gain + systemic / organ weight / kidney / relative to body weight + systemic / …
[43] = systemic / in life observation / body weight / body weight + systemic / in life observation / body weight / body weight gain + systemic / …

`CCCC=NO` [Butanal oxime] showed an LEL [1] of 25 mg/kg/day, an LOAEL [1] of over 600 mg/kg/day and an NEL [1] of under 25 mg/kg/day. The NOAEL [1] was at least 600 mg/kg/day, the LOAEL [2, 22] was over 600 mg/kg/day and the NOAEL [2, 22] was at least 600 mg/kg/day. The LEL [2, 23] was 25 mg/kg/day and the NEL [2, 23] was under 25 mg/kg/day.

In the case of `COc1cc(Cl)c(OC)cc1Cl` [Chloroneb], the LEL [3] was 375 mg/kg/day, the LOAEL [3] was 375 mg/kg/day and the NEL [3] was 25 mg/kg/day. It also gave an NOAEL [3] of 25 mg/kg/day, an LEL [4, 24] of 1000 mg/kg/day and an LOAEL [4, 24] of 1000 mg/kg/day. For the same compound, the NEL [4, 24] was 100 mg/kg/day, the NOAEL [4, 24] was 100 mg/kg/day and the LEL [4, 25] was 1000 mg/kg/day. The LOAEL [4, 25] was 1000 mg/kg/day, the NEL [4, 25] was 100 mg/kg/day and the NOAEL [4, 25] was 100 mg/kg/day. It also gave an LEL [5] of 62.5 mg/kg/day, an LOAEL [5] of 62.5 mg/kg/day and an NEL [5] of 12.5 mg/kg/day. It also gave an NOAEL [5] of 12.5 mg/kg/day.

Work on `CC(C)(C)C(O)/C(=C\c1ccc(Cl)cc1Cl)n1cncn1` (stereo not given) [Diniconazole] yielded an LOAEL [6, 26] of 0.71 mg/kg/day, an NOAEL [6, 26] of under 0.71 mg/kg/day and an LEL [6, 27] of 0.71 mg/kg/day. The NEL [6, 27] was under 0.71 mg/kg/day, the LOAEL ([7]; group: developmental, developmental / developmental malformation / bone / full supernumerary + developmental / developmental malformation / bone / cervical) was 20 mg/kg/day and the LEL [7, 28] was 20 mg/kg/day. For the same compound, the NEL [7, 28] was 5 mg/kg/day, the NOAEL [7, 28] was 5 mg/kg/day and the LEL [7, 29] was 20 mg/kg/day. The LOAEL [7, 29] was 20 mg/kg/day, the NEL [7, 30] was 5 mg/kg/day and the NOAEL [7, 30] was 5 mg/kg/day. For the same compound, the LOAEL ([8]; systemic / in life observation / food consumption / food efficiency) was 200 mg/kg/day, the NOAEL ([8]; systemic / in life observation / food consumption / food efficiency + systemic / clinical chemistry / alkaline phosphatase (alp/alk) / …) was 40 mg/kg/day and the LEL [8, 31] was 40 mg/kg/day. For the same compound, the NEL [8, 31] was under 40 mg/kg/day.

For `CNC(=S)[S-].[Na+]` [Metam-sodium], the LEL [9, 32] was 20 mg/kg/day, the LOAEL [9, 32] was 20 mg/kg/day and the NEL [9, 32] was 5 mg/kg/day. The NOAEL [9, 32] was 5 mg/kg/day, the LEL [9, 30] was 20 mg/kg/day and the LOAEL [9, 30] was 20 mg/kg/day. The NEL [9, 30] was 5 mg/kg/day, the NOAEL [9, 30] was 5 mg/kg/day and the LEL [10] was 1 mg/kg/day. For the same compound, the LOAEL [10] was 1 mg/kg/day, the NEL [10] was under 1 mg/kg/day and the NOAEL [10] was under 1 mg/kg/day. For the same compound, the LOAEL [11, 33] was 1 mg/kg/day, the NOAEL [11, 33] was 0.1 mg/kg/day and the LEL [11, 34] was 0.05 mg/kg/day. For the same compound, the NEL [11, 34] was under 0.05 mg/kg/day, the LOAEL [12, 35] was 12 mg/kg/day and the NOAEL [12, 35] was 3.9 mg/kg/day. The LEL ([12]; systemic / in life observation / body weight / body weight gain) was 6.2 mg/kg/day, the NEL ([12]; systemic / in life observation / body weight / body weight gain + systemic / clinical chemistry / cholesterol / cholesterol + systemic / …) was 2.3 mg/kg/day and the LOAEL [13, 36] was 6.5 mg/kg/day. It also gave an NOAEL [13, 36] of 1.6 mg/kg/day, an LEL [13, 37] of 1.6 mg/kg/day and an NEL [13, 37] of under 1.6 mg/kg/day. The LOAEL ([14]; group: developmental, developmental / developmental malformation / bone / unossified + developmental / developmental malformation / other / other) was 20 mg/kg/day, the LEL [14, 38] was 20 mg/kg/day and the NEL [14, 38] was 5 mg/kg/day. The NOAEL [14, 38] was 5 mg/kg/day, the LOAEL [14, 29] was 20 mg/kg/day and the LEL [14, 30] was 20 mg/kg/day. For the same compound, the NEL [14, 30] was 5 mg/kg/day and the NOAEL [14, 30] was 5 mg/kg/day.

`C=CN1CCCC1=O` [N-Vinyl-2-pyrrolidone] gave an LEL [15] of 45 ppm, an LOAEL [15] of over 45 ppm and an NEL [15] of under 45 ppm. The NOAEL [15] was at least 45 ppm, the LEL [16] was 5 ppm and the LOAEL [16] was over 20 ppm. It also gave an NEL [16] of under 5 ppm and an NOAEL [16] of at least 20 ppm.

`Fc1ccc(Oc2ccnc3cc(Cl)cc(Cl)c23)cc1` [Quinoxyfen] showed an LEL [17] of 500 mg/kg/day, an LOAEL [17] of 500 mg/kg/day and an NEL [17] of 100 mg/kg/day. It also gave an NOAEL [17] of 100 mg/kg/day, an NEL [18, 39] of 10 mg/kg/day and an NOAEL [18, 39] of 10 mg/kg/day. The LEL [18, 40] was 100 mg/kg/day, the LOAEL [18, 40] was 100 mg/kg/day and the NEL [19, 41] was 20 mg/kg/day. For the same compound, the NOAEL [19, 41] was 20 mg/kg/day, the LEL [19, 42] was 80 mg/kg/day and the LOAEL [19, 42] was 80 mg/kg/day. The LOAEL ([20]; systemic / in life observation / body weight / body weight + systemic / in life observation / body weight / body weight gain) was 250 mg/kg/day, the LEL [20, 43] was 250 mg/kg/day and the NEL [20, 43] was 80 mg/kg/day. For the same compound, the NOAEL [20, 43] was 80 mg/kg/day, the LEL [21] was 200 mg/kg/day and the LOAEL [21] was 200 mg/kg/day. For the same compound, the NEL [21] was 20 mg/kg/day and the NOAEL [21] was 20 mg/kg/day.
